Each structure is given as a SMILES string.

In one experiment the target is SERT (Homo sapiens, UniProt P31645). The experiment is described as follows: Radioligand binding.
The target in the next experiment is D1 (Homo sapiens, UniProt P21728). Briefly: Radioligand binding.
The target in a further experiment is D5 (Homo sapiens, UniProt P21918). The experiment is described as follows: Radioligand binding.
The target in a further experiment is T1, D4 (Homo sapiens, UniProt P21917).
T1 sequence (P21917 1-419): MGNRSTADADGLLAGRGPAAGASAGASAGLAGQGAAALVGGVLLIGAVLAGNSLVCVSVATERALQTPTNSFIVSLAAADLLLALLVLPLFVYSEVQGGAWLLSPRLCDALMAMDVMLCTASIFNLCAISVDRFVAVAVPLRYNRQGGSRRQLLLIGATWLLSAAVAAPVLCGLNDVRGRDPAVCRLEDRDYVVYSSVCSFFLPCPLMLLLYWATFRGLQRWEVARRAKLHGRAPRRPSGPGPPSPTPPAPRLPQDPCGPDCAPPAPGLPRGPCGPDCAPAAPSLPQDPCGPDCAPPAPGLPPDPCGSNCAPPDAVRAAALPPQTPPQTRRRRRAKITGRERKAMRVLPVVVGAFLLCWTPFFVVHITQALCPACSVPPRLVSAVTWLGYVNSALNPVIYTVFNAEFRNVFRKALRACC
The experiment is described as follows: Radioligand binding.

In another experiment the target is D2 (Homo sapiens, UniProt P14416). The experiment is described as follows: Radioligand binding.
D2, sequence (P14416 whole entry): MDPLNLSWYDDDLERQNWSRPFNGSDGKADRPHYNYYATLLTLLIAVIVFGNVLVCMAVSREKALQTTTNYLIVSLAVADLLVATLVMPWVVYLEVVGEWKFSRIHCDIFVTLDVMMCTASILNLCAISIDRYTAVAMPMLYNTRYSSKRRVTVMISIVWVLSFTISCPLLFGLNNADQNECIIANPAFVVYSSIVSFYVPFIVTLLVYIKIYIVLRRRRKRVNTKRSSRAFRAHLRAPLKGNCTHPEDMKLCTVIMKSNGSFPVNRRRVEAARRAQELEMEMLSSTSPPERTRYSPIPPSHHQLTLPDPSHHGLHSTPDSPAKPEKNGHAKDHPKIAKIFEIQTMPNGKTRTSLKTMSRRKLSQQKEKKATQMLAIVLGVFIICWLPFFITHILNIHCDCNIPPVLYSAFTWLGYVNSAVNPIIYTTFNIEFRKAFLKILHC
For another experiment, the target named is NET (Rattus norvegicus, UniProt Q63380). Briefly: NET-mediated release of [3H]MPP+ from rat brain synaptosomes. Format: biochemical. As to conditions: read-out: NET-mediated release Emax.
NET, sequence (Q63380 1-617): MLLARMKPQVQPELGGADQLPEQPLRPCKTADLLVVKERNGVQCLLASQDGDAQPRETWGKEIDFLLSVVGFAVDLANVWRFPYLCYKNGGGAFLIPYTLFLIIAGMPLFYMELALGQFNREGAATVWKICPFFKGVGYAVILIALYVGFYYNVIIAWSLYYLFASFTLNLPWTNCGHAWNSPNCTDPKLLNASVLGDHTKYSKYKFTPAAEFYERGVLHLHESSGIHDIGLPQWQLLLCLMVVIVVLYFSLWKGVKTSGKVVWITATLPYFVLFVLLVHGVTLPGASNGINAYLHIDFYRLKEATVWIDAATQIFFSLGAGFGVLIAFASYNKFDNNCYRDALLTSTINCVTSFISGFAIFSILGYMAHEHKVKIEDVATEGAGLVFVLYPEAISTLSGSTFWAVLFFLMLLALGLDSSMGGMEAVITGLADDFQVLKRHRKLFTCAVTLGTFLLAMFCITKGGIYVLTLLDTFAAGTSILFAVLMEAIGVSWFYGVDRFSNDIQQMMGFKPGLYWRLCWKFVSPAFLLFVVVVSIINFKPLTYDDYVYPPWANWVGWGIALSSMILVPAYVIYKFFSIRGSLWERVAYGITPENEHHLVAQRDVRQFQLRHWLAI
The next experiment deals with T2, α2A (Homo sapiens, UniProt P08913).
T2 sequence (P08913 1-465): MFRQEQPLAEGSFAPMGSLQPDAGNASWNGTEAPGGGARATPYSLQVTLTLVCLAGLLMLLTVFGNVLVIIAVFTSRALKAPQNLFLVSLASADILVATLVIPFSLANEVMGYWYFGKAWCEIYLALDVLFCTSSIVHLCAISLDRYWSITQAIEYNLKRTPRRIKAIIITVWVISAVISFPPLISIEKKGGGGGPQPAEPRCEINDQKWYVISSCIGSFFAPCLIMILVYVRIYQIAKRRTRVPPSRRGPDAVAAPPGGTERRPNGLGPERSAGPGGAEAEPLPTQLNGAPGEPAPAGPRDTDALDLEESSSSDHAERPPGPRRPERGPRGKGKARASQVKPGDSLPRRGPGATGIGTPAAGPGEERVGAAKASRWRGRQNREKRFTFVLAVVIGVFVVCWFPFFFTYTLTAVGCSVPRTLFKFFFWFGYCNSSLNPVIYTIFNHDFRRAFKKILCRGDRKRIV
The experiment is described as follows: Radioligand binding. The conditions noted are these: for fold lower affinity for α2A compared to 2-AI: binding, [3H]rauwolscine.

The next experiment addresses σ1 (Rattus norvegicus, UniProt Q9R0C9). The experiment is described as follows: Radioligand binding.
For another experiment, the target named is T3, 5-HT1A (Homo sapiens, UniProt P08908).
T3 sequence (P08908 1-422): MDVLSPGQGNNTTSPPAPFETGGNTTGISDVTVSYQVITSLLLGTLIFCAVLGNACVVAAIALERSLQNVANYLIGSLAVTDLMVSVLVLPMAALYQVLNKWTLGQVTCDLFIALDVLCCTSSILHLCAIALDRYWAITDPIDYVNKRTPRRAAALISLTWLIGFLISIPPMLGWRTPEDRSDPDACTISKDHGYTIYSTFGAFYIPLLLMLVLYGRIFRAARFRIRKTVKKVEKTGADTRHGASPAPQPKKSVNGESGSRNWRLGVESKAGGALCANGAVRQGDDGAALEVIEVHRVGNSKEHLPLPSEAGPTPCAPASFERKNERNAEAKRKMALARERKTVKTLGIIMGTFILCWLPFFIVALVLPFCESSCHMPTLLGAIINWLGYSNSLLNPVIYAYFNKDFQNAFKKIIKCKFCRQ
Briefly: Radioligand binding.

The next experiment addresses T4, α1A (Homo sapiens, UniProt P35348).
T4 sequence (P35348 1-466): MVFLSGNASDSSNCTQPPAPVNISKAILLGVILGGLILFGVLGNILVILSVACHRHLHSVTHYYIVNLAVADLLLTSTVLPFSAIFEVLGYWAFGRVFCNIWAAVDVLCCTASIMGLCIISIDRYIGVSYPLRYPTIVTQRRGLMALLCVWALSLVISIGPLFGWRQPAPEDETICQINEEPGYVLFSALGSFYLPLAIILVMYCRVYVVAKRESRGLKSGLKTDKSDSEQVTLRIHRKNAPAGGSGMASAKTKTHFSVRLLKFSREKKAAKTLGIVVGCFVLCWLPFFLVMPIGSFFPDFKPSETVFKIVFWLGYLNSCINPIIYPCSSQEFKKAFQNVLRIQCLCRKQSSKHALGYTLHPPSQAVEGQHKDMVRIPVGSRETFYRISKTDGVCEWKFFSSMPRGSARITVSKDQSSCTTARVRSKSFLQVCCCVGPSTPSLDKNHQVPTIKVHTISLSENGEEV
Briefly: Radioligand binding.

Another experiment concerns the target T5, α2B (Homo sapiens, UniProt P18089).
T5 sequence (P18089 1-450): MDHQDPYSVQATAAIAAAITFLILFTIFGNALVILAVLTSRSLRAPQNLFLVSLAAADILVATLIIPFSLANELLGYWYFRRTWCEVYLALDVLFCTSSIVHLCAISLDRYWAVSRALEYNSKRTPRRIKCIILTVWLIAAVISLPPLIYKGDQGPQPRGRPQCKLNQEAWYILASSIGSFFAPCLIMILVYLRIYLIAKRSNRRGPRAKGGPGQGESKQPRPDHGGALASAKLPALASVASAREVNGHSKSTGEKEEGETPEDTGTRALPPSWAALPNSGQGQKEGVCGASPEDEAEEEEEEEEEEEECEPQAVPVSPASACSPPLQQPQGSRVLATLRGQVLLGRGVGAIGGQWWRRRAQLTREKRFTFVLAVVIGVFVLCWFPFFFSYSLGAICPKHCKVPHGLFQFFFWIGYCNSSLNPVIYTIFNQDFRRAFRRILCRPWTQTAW
The experiment is described as follows: Radioligand binding. As to conditions: for fold lower affinity for α2B compared to 2-AI: binding, [3H]rauwolscine.

A further experiment has as its target β3 (Homo sapiens, UniProt P13945). The experiment is described as follows: Radioligand binding.
The next experiment has as its target β2 (Homo sapiens, UniProt P07550). The experiment is described as follows: Radioligand binding.
The target of the next experiment is 5-HT6 (Homo sapiens, UniProt P50406). Briefly: Radioligand binding.
5-HT6, sequence (P50406 whole entry): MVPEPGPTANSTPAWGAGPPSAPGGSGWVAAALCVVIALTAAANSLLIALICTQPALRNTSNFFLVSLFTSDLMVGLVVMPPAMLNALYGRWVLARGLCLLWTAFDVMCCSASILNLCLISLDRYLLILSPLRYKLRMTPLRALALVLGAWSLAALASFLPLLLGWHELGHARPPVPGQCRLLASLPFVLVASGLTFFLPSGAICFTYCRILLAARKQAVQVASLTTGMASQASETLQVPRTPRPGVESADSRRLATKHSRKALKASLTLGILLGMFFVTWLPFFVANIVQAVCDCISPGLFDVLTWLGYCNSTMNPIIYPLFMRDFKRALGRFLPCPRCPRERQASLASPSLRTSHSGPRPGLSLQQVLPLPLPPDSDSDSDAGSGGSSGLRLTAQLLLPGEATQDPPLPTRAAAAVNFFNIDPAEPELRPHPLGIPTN

D5, sequence (P21918 whole entry): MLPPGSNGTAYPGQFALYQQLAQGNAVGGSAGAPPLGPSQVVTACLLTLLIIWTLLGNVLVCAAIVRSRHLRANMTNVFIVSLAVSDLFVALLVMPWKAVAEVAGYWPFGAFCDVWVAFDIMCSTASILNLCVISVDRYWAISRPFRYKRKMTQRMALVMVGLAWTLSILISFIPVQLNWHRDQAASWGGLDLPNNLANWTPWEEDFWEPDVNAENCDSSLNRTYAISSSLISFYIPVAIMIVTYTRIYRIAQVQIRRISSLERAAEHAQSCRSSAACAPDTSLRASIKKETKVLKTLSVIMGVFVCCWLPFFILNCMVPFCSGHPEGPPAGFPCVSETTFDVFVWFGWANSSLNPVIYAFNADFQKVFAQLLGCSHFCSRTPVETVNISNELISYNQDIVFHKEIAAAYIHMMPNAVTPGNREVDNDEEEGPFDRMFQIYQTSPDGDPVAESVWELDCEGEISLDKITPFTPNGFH
SERT, sequence (P31645 whole entry): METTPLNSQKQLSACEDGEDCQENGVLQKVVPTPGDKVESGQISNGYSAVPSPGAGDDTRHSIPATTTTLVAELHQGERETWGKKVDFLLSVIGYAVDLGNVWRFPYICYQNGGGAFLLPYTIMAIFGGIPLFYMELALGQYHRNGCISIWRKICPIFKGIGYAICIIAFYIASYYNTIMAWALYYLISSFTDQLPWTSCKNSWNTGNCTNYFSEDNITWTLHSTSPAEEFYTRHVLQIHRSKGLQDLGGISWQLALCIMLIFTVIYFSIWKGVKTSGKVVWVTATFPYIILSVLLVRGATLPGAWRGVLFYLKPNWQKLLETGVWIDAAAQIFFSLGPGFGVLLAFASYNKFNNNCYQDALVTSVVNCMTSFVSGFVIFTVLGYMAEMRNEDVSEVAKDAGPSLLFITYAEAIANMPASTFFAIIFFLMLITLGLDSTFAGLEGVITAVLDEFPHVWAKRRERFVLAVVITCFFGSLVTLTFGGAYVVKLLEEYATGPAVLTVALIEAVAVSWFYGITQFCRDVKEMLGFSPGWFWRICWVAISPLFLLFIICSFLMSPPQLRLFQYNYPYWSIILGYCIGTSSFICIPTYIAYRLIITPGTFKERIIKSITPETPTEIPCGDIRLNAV
D1, sequence (P21728 whole entry): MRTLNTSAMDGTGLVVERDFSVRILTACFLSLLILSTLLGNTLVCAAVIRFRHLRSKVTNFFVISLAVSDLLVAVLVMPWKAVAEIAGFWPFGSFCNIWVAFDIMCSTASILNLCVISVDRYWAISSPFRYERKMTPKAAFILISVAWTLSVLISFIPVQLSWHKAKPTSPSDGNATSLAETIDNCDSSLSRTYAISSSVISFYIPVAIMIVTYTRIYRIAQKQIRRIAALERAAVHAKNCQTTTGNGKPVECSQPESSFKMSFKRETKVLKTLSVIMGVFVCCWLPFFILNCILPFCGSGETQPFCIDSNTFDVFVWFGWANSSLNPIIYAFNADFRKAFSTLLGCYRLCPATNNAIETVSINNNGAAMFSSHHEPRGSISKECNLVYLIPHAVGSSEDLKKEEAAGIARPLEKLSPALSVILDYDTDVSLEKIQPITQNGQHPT
β2, sequence (P07550 whole entry): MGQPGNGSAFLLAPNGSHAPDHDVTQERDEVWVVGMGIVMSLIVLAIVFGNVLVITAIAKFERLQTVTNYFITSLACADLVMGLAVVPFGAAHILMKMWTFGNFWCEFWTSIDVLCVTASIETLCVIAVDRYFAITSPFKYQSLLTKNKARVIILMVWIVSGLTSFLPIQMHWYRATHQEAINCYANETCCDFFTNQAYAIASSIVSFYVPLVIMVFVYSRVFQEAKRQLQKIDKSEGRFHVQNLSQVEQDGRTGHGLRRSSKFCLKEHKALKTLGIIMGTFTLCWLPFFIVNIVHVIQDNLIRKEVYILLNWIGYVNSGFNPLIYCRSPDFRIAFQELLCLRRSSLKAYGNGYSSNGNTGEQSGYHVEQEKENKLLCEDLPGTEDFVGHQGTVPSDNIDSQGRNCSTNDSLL
β3, sequence (P13945 whole entry): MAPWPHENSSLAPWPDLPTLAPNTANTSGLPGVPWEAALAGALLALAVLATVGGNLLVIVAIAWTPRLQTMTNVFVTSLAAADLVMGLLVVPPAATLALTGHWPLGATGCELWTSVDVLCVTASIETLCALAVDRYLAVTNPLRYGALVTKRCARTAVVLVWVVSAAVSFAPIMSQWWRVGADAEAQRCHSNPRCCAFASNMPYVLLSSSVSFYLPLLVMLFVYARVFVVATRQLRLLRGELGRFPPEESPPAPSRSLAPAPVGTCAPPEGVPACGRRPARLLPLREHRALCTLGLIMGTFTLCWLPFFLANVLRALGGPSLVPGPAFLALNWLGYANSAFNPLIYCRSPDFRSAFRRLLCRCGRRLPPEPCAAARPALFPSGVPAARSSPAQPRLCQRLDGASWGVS
σ1, sequence (Q9R0C9 whole entry): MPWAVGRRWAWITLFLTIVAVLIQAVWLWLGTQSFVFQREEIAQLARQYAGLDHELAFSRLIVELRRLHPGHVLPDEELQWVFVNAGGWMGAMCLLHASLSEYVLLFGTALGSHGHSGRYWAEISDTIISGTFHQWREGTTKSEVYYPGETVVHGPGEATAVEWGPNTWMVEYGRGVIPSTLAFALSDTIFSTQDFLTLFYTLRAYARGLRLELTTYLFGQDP

Usually Ki stands for the equilibrium dissociation constant of an inhibitor or competing ligand from its target. A high value points to lower affinity. Usually Emax stands for the maximal effect, on the per cent scale that the assay sets. Regarding `NC1Cc2ccccc2C1` [2-AI, 2-aminoindan], the Ki is greater than 10 µM at SERT; greater than 10 µM at D1; greater than 10 µM at D5; greater than 10 µM at D4; greater than 10 µM on D2; 0.134 ± 0.031 µM at α2A. Also, the Ki is greater than 10 µM on σ1; greater than 10 µM at 5-HT1A; greater than 10 µM on α1A; 0.211 ± 0.081 µM at α2B; greater than 10 µM at β3; greater than 10 µM on β2. Besides, the Ki on 5-HT6 was greater than 10 µM. In addition, on NET, the Emax is 95%.

`COc1cc2c(cc1C)CC(N)C2` (stereo not drawn) [MMAI, 5-methoxy-6-methyl-2-aminoindan]: the inhibition constant Ki at SERT was 4.82 µM; on D1, greater than 10 µM; on D5 it was greater than 10 µM; at D4, greater than 10 µM; on D2, greater than 10 µM; at α2A, 0.724 ± 0.477 µM. The Ki on σ1 was greater than 10 µM; on 5-HT1A it was 1.08 µM; at α1A, greater than 10 µM; at α2B, 1.23 µM; on β3 it was greater than 10 µM; at β2, greater than 10 µM. On 5-HT6, the Ki is greater than 10 µM. Also, the Emax on NET was 105%. Besides, on α2A, the “fold lower affinity for α2A compared to 2-AI” value turned out to be 5 fold. For the same compound, the “fold lower affinity for α2B compared to 2-AI” value on α2B is given as 5 fold.

Consider `COc1ccc2c(c1)CC(N)C2` (stereo not drawn) [5-MeO-AI, 5-methoxy-2-aminoindan], for which the inhibition constant (Ki) on SERT is greater than 10 µM; at D1 it was greater than 10 µM; on D5, greater than 10 µM; on D4 it was greater than 10 µM; on D2, greater than 10 µM; on α2A it was 0.751 ± 0.338 µM. Also, the inhibitory constant (Ki) on σ1 is greater than 10 µM; on 5-HT1A, 2.5 µM; on α1A, greater than 10 µM; at α2B, 1.55 µM; on β3, greater than 10 µM; at β2, greater than 10 µM. This compound registered an inhibition constant Ki on 5-HT6 greater than 10 µM. Moreover, the Emax on NET is 101%. On α2A, the “fold lower affinity for α2A compared to 2-AI” value came to 5 fold. Besides, the “fold lower affinity for α2B compared to 2-AI” value on α2B is listed as 5 fold.

In the case of `NC1Cc2cc3c(cc2C1)OCO3` [MDAI, 5,6-methylenedioxy-2-aminoindan], the Ki on SERT is greater than 10 µM; on D1, greater than 10 µM; at D5, greater than 10 µM; at D4 it was greater than 10 µM; at D2, greater than 10 µM; on α2A, 0.322 ± 0.114 µM. For the same compound, the inhibition constant (Ki) at σ1 is greater than 10 µM; on 5-HT1A, greater than 10 µM; at α1A, greater than 10 µM; on α2B, 1.12 µM; on β3 it was greater than 10 µM; on β2 it was greater than 10 µM. The compound also gave a Ki at 5-HT6 greater than 10 µM. Besides, at NET, the maximum response (Emax) was 99%.

For the origin of these results see article PMC6848746 (Psychopharmacology, 2019).
